{"source": "patent US6710075B2", "about": "“Therapeutic compounds and methods” (The Government of the State of Sarawak, Malaysia, priority 2000, dated 2004)", "format_in_all_cases": "cell-based, human", "key": {"[1]": {"system": "THP-1 cells", "assay": "Acute general protein biosynthesis inhibition, [14C] leucine incorporation, THP-1 cells", "conditions": "1 hour pretreatment + 2 hours label, read-out: IC50 Protein synthesis"}, "[2]": {"system": "THP-1 cells", "assay": "DNA synthesis, [14C]-thymidine uptake, THP-1 cells", "conditions": "48 hours", "text": "(§1) (a) Compounds A and B were identified from a bark sample of Aglaia leptantha through their ability to inhibit production of Tumour Necrosis Factor-α (TNF-α) by THP-1 human promonocytic leukemia cells (Tsuchiya, et al, Int. J. Cancer, 1980, 26(2):171-6) activated with lipopolysaccharide (LPS). Table 4 summarises the results comparing the activity of Compounds A and B for inhibition of TNF-α production to their effects on general cell metabolism measured using WST-1 reduction, DNA synthesis and protein synthesis assays for THP-1 cells. […] For comparison, the effects of Compounds A and B on A549 lung epithelial carcinoma cells (Leiber et al, Int. J. Cancer, 1976, 17(1)-62-70) were also measured and the data is also included in Table 4."}, "[3]": {"system": "A549 cells", "assay": "Proliferation of A549 cells, haemocytometer counting of trypan blue stained cells", "conditions": "for cell death: after 9 days", "experimental": "A549 cells were seeded at ˜10,000 cells/well and cultured in the presence of the indicted concentrations of Compound A or paclitaxel. Cells were collected and the viable cell number determined by haemocytometer counting of trypan blue stained cells at the various times. The results are the averages ±SEM of triplicate cultures.\nThe cytostatic effect of Compound A on the proliferation of A549 cells was confirmed by directly counting the number of cells at intervals over a nine day period (FIG. 3). When compared to untreated cells 10 nM Compound A prevented the increase in cell number by more than 95% with fewer than 10% dead cells observed at this time (measured by trypan blue exclusion). Thus, under these conditions the decreased cell number can not simply be accounted for by increased cell death. […] At the higher concentrations of 50 nM and 250 nM Compound A had cytotoxic effects and increased cell death to 86% and 100% respectively after 9 days and accounts for the decline in cell number to levels below the original staring number at this time. At the non-cytotoxic concentration of 10 nM, Compound A has a rapid and potent cytostatic effect on A549 cells."}, "[4]": {"system": "K562", "assay": "Cytotoxic activity, sub-diploid DNA content by flow cytometry (propidium iodide)", "experimental": "(§2) (b) Compound A was assessed for cytotoxic and cytostatic activity against a panel of cell lines derived from a variety of human tumour types in addition to THP-1 and A549 cells (Table 5). These included K562 leukemic cells (Lozzio and Lozzio, 1975, Blood 45:321-34), PC3 prostate tumour cells (Kaighn et al., 1979, Invest. Urol. 17:16-23) and SF268 glioblastoma cells (Westphal et al, 1985, Biochem. Biophys. Res. Commun., 132:284-9). […] However, the cytotoxic potency of Compound A increased dramatically after 6 days of culture for the K562, A549 and SF268 cells."}, "[5]": {"system": "A549", "assay": "Cytotoxic activity, sub-diploid DNA content by flow cytometry (propidium iodide)", "experimental": "as §2"}, "[6]": {"system": "THP-1", "assay": "Cytotoxic activity, sub-diploid DNA content by flow cytometry (propidium iodide)", "conditions": "Homo sapiens, THP-1, 72 h, THP-1, 3 days; read-out: LC50 (3 day cultures)", "experimental": "as §2"}, "[7]": {"system": "PC3", "assay": "Cytotoxic activity, sub-diploid DNA content by flow cytometry (propidium iodide)", "conditions": "Homo sapiens", "experimental": "as §2"}, "[8]": {"system": "SF268", "assay": "Cytotoxic activity, sub-diploid DNA content by flow cytometry (propidium iodide)", "conditions": "Homo sapiens, SF-268, 72 h, SF268, 3 days; read-out: LC50 (3 day cultures)", "experimental": "as §2"}, "[9]": {"system": "A549 cells", "assay": "Effect on camptothecin- and paclitaxel-induced cytotoxicity, YOYO-1 exclusion", "conditions": "A549, 10 nM Compound A, 3 days, drugs at up to 2000-fold excess", "experimental": "A549 cells in 96 well plates were cultured for 3 days in the presence or absence of 10 nM Compound A together with the indicated concentrations of (A) camptothecin or (B) paclitaxel. Loss of membrane integrity was then assessed by the addition of the fluorescent DNA-binding dye YOYO-1 and the increased fluorescence accompanying cell death measured using a fluorescent plate reader.\nTo further examine the cell cycle effects of Compound A a cytostatic concentration of this compound was combined together with other anti-cancer agents known to act at specific points in the cell cycle to see if Compound A could perturb their cell cycle-dependent effects. Cell viability was assayed after 3 days by measuring exclusion of the fluorescent DNA-binding dye YOYO-1. (Becker et al., Anal Biochem, 1994, 221(1):78-84). A549 cells were treated with 10 nM non-cytotoxic dose of Compound A in the presence of increasing concentrations of camptothecin and paclitaxel. Camptothecin is an inhibitor of DNA topoisomerase 1, an enzyme required for DNA replication, and results in pertubation of the S phase of the cell cycle with subsequent cell death due to activation of an S phase checkpoint (Darzynkiewicz et al., Ann N Y Acad Sci, 1996, 803:93-100). […]"}, "[10]": {"system": "Intercellular Adhesion Molecule-1 (ICAM-1)", "assay": "IL-1-induced ICAM-1 surface expression by A549 cells (Delfia)", "conditions": "24 hours, read-out: IC50 ICAM-1 Production", "text": "as §1"}, "[11]": {"system": "Tumour Necrosis Factor-α (TNF-α)", "assay": "Inhibition of TNF-α production by LPS-activated THP-1 cells (sandwich ELISA)", "conditions": "18 hours", "text": "as §1"}, "[12]": {"system": "THP-1 cells", "assay": "Protein synthesis, [14C]-leucine uptake, THP-1 cells", "conditions": "48 hours", "text": "as §1"}, "[13]": {"system": "A549 cells", "assay": "Acute general protein biosynthesis inhibition, [14C] leucine incorporation, A549 cells", "conditions": "1 hour pretreatment + 2 hours label, read-out: IC50 Protein synthesis"}, "[14]": {"system": "A549 cells", "assay": "Protein synthesis, [14C]-leucine uptake, A549 cells", "conditions": "Homo sapiens, A549, 72 h", "text": "as §1"}, "[15]": {"system": "THP-1 cells", "assay": "Acute DNA synthesis inhibition, [14C] thymidine incorporation, THP-1 cells", "conditions": "1 hour pretreatment + 2 hours label"}, "[16]": {"conditions": "Homo sapiens, THP-1, THP-1 cells"}}, "note": "Where two headings read alike, the source gives them in different places."}
{"smiles": "COC(=O)[C@H]1[C@@H](O)[C@@]2(O)c3c(OC)cc(OC4OC(C(O)CO)COC4OC)cc3O[C@@]2(c2ccc(OC)cc2)[C@@H]1c1ccccc1", "note": "(single isomer, unassigned) [Compound A]", "values": [{"measurement": "IC50", "setting": "[1]; [16]", "value": "~30", "unit": "nM"}, {"measurement": "IC50", "setting": "[1]; THP-1 cells", "value": 27, "unit": "nM"}, {"measurement": "IC50", "setting": "[2]", "value": 15, "unit": "nM"}, {"measurement": "dead cells (trypan blue exclusion)", "setting": "[3]; A549, 10 nM", "value": "< 10", "unit": "%"}, {"measurement": "prevention of the increase in cell number compared to untreated cells", "setting": "[3]; A549, 10 nM, nine day period", "value": "more than 95%"}, {"measurement": "cell death", "setting": "[3]; A549, 50 nM", "value": 86, "unit": "%"}, {"measurement": "cell death", "setting": "[3]; A549, 250 nM", "value": 100, "unit": "%"}, {"measurement": "CC50", "setting": "[4]; Homo sapiens, K562, 72 h, K562, 3 days, read-out: LC50 (3 day cultures)", "value": "> 1000", "unit": "nM"}, {"measurement": "CC50", "setting": "[4]; Homo sapiens, K562, 144 h, K562, 6 days, read-out: LC50 (6 day cultures)", "value": 10, "unit": "nM"}, {"measurement": "CC50", "setting": "[4]; K562, 6 days, read-out: LC50 (6 day cultures)", "value": 12, "unit": "nM"}, {"measurement": "CC50", "setting": "[5]; A549, 6 days, read-out: LC50 (6 day cultures)", "value": 15, "unit": "nM"}, {"measurement": "CC50", "setting": "[5]; Homo sapiens, A549, 72 h, A549, 3 days, read-out: LC50 (3 day cultures)", "value": 914, "unit": "nM"}, {"measurement": "CC50", "setting": "[5]; Homo sapiens, A549, 144 h, A549, 6 days, read-out: LC50 (6 day cultures)", "value": 21, "unit": "nM"}, {"measurement": "CC50", "setting": "[6]", "value": 36, "unit": "nM"}, {"measurement": "CC50", "setting": "[7]; PC-3, 72 h, PC3, 3 days, read-out: LC50 (3 day cultures)", "value": 18, "unit": "nM"}, {"measurement": "CC50", "setting": "[7]; PC-3, 144 h, PC3, 6 days, read-out: LC50 (6 day cultures)", "value": 12, "unit": "nM"}, {"measurement": "CC50", "setting": "[8]", "value": 461, "unit": "nM"}, {"measurement": "effect on cytotoxicity of camptothecin and paclitaxel", "setting": "[9]", "value": "significantly reduced the cytotoxic effects of both camptothecin and paclitaxel"}, {"measurement": "IC50", "setting": "[10]", "value": 2000, "unit": "nM"}, {"measurement": "IC50", "setting": "[11]", "value": 60, "unit": "nM"}, {"measurement": "IC50", "setting": "[12]", "value": 60, "unit": "nM"}, {"measurement": "IC50", "setting": "[13]; A549 cells", "value": 32, "unit": "nM"}, {"measurement": "IC50", "setting": "[13]; Homo sapiens, A549, A549 cells", "value": "~30", "unit": "nM"}, {"measurement": "IC50", "setting": "[14]", "value": 20, "unit": "nM"}, {"measurement": "IC50", "setting": "[15]; [16]", "value": "~70", "unit": "nM"}, {"measurement": "IC50", "setting": "[15]; THP-1 cells", "value": 72, "unit": "nM"}]}
